# Measured values: patent publication US7833940B2, “2-(substituted phenyl)-6-hydroxy or alkoxy-5-substituted-4-pyrimidinecarboxylates and their use as herbicides” (Dow AgroSciences LLC, priority 2008, dated 2010)
# Columns and labels:
# [1] = tested on: Wild Pointsettia (Euphorbia heterophylla); assay: General postemergence herbicidal activity, EPHHL; assay type: in vivo; details: post-emergent, 280 g ai/ha, visual score after 14 days (0 = no injury, 100 = complete kill)
# Protocol: (§1) Seeds or nutlets of the desired test plant species were planted in Sun Gro MetroMix® 306 planting mixture, which typically has a pH of 6.0 to 6.8 and an organic matter content of about 30 percent, in plastic pots with a surface area of 64 square centimeters. When required to ensure good germination and healthy plants, a fungicide treatment and/or other chemical or physical treatment was applied. The plants were grown for 7-21 days in a greenhouse with an approximate 15 hour photoperiod which was maintained at about 23-29° C. during the day and 22-28° C. during the night. Nutrients and water were added on a regular basis and supplemental lighting was provided with overhead metal halide 1000-Watt lamps as necessary. The plants were employed for testing when they reached the first or second true leaf stage.
# (§2) A weighed amount, determined by the highest rate to be tested, of each test compound was dissolved in 4 mL of a 97:3 v/v (volume/volume) mixture of acetone and dimethyl sulfoxide (DMSO) to obtain concentrated stock solutions. […] The concentrated stock solutions obtained were diluted with 20 mL of an aqueous mixture containing acetone, water, isopropyl alcohol, DMSO, Atplus 411F crop oil concentrate, and Triton® X-155 surfactant in a 48.5:39:10:1.5:1.0:0.02 v/v ratio to obtain spray solutions containing the highest application rates. […]
# (§3) The treated plants and control plants were placed in a greenhouse as described above and watered by sub-irrigation to prevent wash-off of the test compounds. After 14 days, the condition of the test plants as compared with that of the untreated plants was determined visually and scored on a scale of 0 to 100 percent where 0 corresponds to no injury and 100 corresponds to complete kill.
# [2] = tested on: Lambsquarters (Chenopodium album); assay: General postemergence herbicidal activity, CHEAL; assay type: in vivo; details: post-emergent, 280 g ai/ha, visual score after 14 days (0 = no injury, 100 = complete kill)
# Protocol: as §1, §2, §3
# [3] = tested on: Common Sunflower (Helianthus annuus); assay: General postemergence herbicidal activity, HELAN; assay type: in vivo; details: post-emergent, 280 g ai/ha, visual score after 14 days (0 = no injury, 100 = complete kill)
# Protocol: as §1, §2, §3
# [4] = tested on: Redroot Pigweed (Amatanthus retroflexus); assay: General postemergence herbicidal activity, AMARE; assay type: in vivo; details: post-emergent, 280 g ai/ha, visual score after 14 days (0 = no injury, 100 = complete kill)
# Protocol: as §1, §2, §3
Compound,melting point [°C],% Growth Reduction EPHHL [1] [%],% Growth Reduction CHEAL [2] [%],% Growth Reduction HELAN [3] [%],% Growth Reduction AMARE [4] [%]
"COC(=O)c1nc(-c2ccc(Cl)c(OC)c2F)nc(O)c1Cl [Compound 1, 6-hydroxy-2-(4-chloro-2-fluoro-3-methoxyphenyl)-5-chloropyrimidine-4-carboxylic acid methyl ester]",215 to 217,100,100,90,100
"COC(=O)c1nc(-c2ccc(Cl)c(OC)c2F)nc(O)c1Br [Compound 2, 6-hydroxy-2-(4-chloro-2-fluoro-3-methoxyphenyl)-5-bromopyrimidine-4-carboxylic acid methyl ester]",192 to 195,100,95,85,100
"COC(=O)c1nc(-c2ccc(Cl)c(OC)c2F)nc(O)c1OC [Compound 3, 6-hydroxy-2-(4-chloro-2-fluoro-3-methoxyphenyl)-5-methoxypyrimidine-4-carboxylic acid methyl ester]",177 to 179,100,90,10,40
